Assay results published in patent US20050131056A1, “2- thia-dibenzoazulenes as inhibitors of tumor necrosis factor production and intermediates for the preparation thereof” (Pliva-Istrazivacki Institut d.o.o., priority 2002, published 2005).

Tested on: TNF-α and IL-1 secretion
Experiment: investigated assays, not specified which (TNF-α/IL-1 secretion in human PBMC, in mouse peritoneal macrophages, LPS-induced secretion in mice, writhing assay, LPS-induced shock)
Details: at least two of five assays, not named; active = IC50 20 μM or lower (PBMC), 10 μM or lower (macrophages), 30% or more TNF-α inhibition at 10 mg/kg, analgetic activity as acetylsalicylic acid or better, survival 40% or more at 30 mg/kg
Protocol: The inhibitory action of the present compounds upon TNF-α and IL-1 secretion was determined by the following in vitro and in vivo experiments:
Human peripheral blood mononuclear cells (PBMC) were prepared from heparinized whole blood after separating PBMC on Ficoll-Paque™Plus (Amersham-Pharmacia). To determine the TNF-α level, 3.5-5×10^4 cells were cultivated in a total volume of 200 μl for 18 to 24 hours on microtitre plates with a flat bottom (96 wells, Falcon) in RPMI 1640 medium, into which there were added 10% FBS (Fetal Bovine Serum, Biowhittaker) previously inactivated at 54° C./30 min, 100 units/ml of penicillin, […] of streptomycin and 20 mM HEPES (GIBCO). The cells were incubated at 37° C. in an atmosphere with 5% CO2 and 90% humidity. […] The IL-1 level was determined in an assay under the same conditions and with the same number of cells and the same concentration of stimuli stimulus by ELISA procedure (R&D Systems). The percentage of inhibition of TNF-α or IL-1 production was calculated by the equation: • % inhibition=[1−(TS-NC)/(PC-NC)]*100. […]
In order to obtain peritoneal macrophages, Balb/C mouse strain males, age 8 to 12 weeks, were injected i.p. with 300 μg of zymosan (SIGMA) dissolved in a phosphate buffer (PBS) in a total volume of 0.1 ml/mouse. […] The TNF-α level in the cell supernatant was determined by ELISA procedure (R&D Systems, Biosource). […]

Which “activity in the investigated assays” value does the source give for O=Cc1scc2c1-c1ccccc1Sc1ccccc1-2 [Example 14, 2,8-Dithia-dibenzo[e,h]azulene-1-carbaldehyde] here?
The value was “activity in at least two investigated assays”.
